One experiment addresses CDK2/Cyclin E2 (Homo sapiens, UniProt P24941). Nature of the experiment: CDK2/CyclinE2 Enzymatic Activity Assay (TR-FRET). Format: biochemical. The conditions noted are these: CDK2/CyclinE2 1 nM, ATP 1 mM, read-out: CDK2_El IC50. As for the experimental part: CDK2/CyclinE2 Enzymatic Activity Assay
The inhibitory activity of compounds was evaluated in vitro using TR-FRET assay with white 384-well low volume microplate (Greiner Bio-One). CDK2/Cyclin E2 catalyzed phosphorylation of peptide in the presence and absence of compounds was measured and used in IC50 determination. Recombinant protein complex CDK2/Cyclin E2, expressed from insect cell, was purchased from ProQinase. Testing compounds were dissolved in DMSO at 1 mM and tested in 9-dose IC50 mode. The reaction mixture was prepared by mixing CDK2/CyclinE2 (1 nM final), ULight-4E-BP1 (50 nM final, Perkinelmer, TRF0128-D), and ATP (1 mM final) in assay buffer (20 mM of HEPES pH 7.4, 1 mM of EGTA, 0.05% BSA, 0.005% Tween 20, and 1 mM TCEP). The compound of interest in DMSO was added to each well in 3-fold serial dilution by dispenser (TECAN D300E) to make a 9.9 μL of reaction mixture. After 20 minutes preincubation at room temperature, 0.1 μL MgCl2 (10 mM final) was added to initiate the reaction. Following a 45 minute incubation at 37° C., the reaction was stopped by addition of 2 μL of quenching buffer consisting of Lance detection buffer (Perkinelmer CR97-100C), LANCE Ultra Europium-anti-P-4E-BP1 (Perkinelmer, TRF0216-D), EDTA, and incubate at room temperature for additional 60 minutes in the dark. The reaction signal was measured by Envision multimode plate reader (PerkinElmer, 2102-0010). IC50 values were determined by fitting the data to the standard 4 parameters with Hill Slope using GraphPad Prism software.
For orientation: TR-FRET usually uses a lanthanide donor and a delayed reading to cut background.

The test system of a further experiment is pRB in OVCAR3 cells. Nature of the experiment: pRB ICW Assay in OVCAR3 Cells. The experiment is classed as cell-based. The conditions noted are these: Homo sapiens, OVCAR-3, incubated with compound for 2 hours, read-out: OVCAR3 p-RB ICW IC50. How it is done: pRB ICW Assay in OVCAR3 Cells
OVCAR3 cells were maintained in RPMI (Corning, Catalog #: 10-040-CV) supplemented with 10% v/v FBS (Gibco, Catalog #: 26140-079), 1% v/v Penicillin Streptomycin (Gibco, Catalog #15140-122.) OVCAR3 cells grown at log phase were trypsinized, counted, and resuspended in fresh medium to reach a final density of 6.7e4 cells/mL and 75 μL of culture were dispensed into a 384-well plate (Falcon, cat #353962) using a Multidrop Combi dispenser (Thermo Scientific). The next day, compounds were dispensed as a 9-point, ½ log serial dilution using a Tecan digital dispenser (D300e), and cells were incubated with compound for 2 hours in a humidified incubator at 37° C. A reference compound at a final concentration of 10 μM was used as a control for maximum inhibition. Each compound was tested in duplicates for each experiment. At the end of the incubation, 25 μL of 16% paraformaldehyde (Electron Microscopy, cat #15710) was slowly added to each well and the plate was incubated at room temperature (RT) for 30 minutes to fix cells. Cells were then permeabilized by incubating with 50 μL/well of wash buffer (lx PBS with 0.1% Triton X-100) 5×5 minutes, followed by 1 hour blocking with 30 μL/well of Odyssey blocking buffer (Li—COR, cat #927-40000), at RT. Anti-phosphor RB antibody (Cell signaling 8516S) was diluted 1:1000 in Odyssey blocking buffer and 20 μL was added to all wells and incubated overnight in 4° C. with gently rocking. The next day, cells were washed 5×5 min with 50 μL/well of wash buffer, followed with 1 hour incubation with secondary antibody and DRAQ5 diluted in Odyssey blocking buffer (1:500 dilution for secondary antibody and 1:2000 dilution for DRAQ5), 5×5 min washes, and one last wash with water. Plates were dried in 37° C. oven for 5 minutes and scanned using Li—COR Odyssey CLx imaging system to acquire intensities at 700 and 800 nm channels.

In the next experiment the target is T1, CDK4/Cyclin D1 (Homo sapiens, UniProt P11802).
T1 construct: purchased ProQinase; host or cells: insect cell
Nature of the experiment: CDK4/CyclinD1 Enzymatic Activity Assay (TR-FRET). The experiment is classed as biochemical. The conditions noted are these: CDK4/CyclinD1 1 nM, ATP 2 mM, read-out: CDK4_D1 IC50. How it is done:
CDK4/CyclinD1 Enzymatic Activity Assay
The inhibitory activity of compounds was evaluated in vitro using TR-FRET assay with white 384-well low volume microplate (Greiner Bio-One). CDK4/Cyclin D1 catalyzed phosphorylation of peptide in the presence and absence of compounds was measured and used in IC50 determination. Recombinant protein complex CDK4/Cyclin D1, expressed from insect cell, was purchased from ProQinase. Testing compounds were dissolved in DMSO at 1 mM and tested in 9-dose IC50 mode. The reaction mixture was prepared by mixing CDK4/CyclinD1 (1 nM final), ULight-4E-BP1 (100 nM final, Perkinelmer, TRF0128-D), and ATP (2 mM final) in assay buffer (20 mM of HEPES pH 7.4, 1 mM of EGTA, 0.05% BSA, 0.005% Tween 20, and 1 mM TCEP). The compound of interest in DMSO was added to each well in 3-fold serial dilution by the dispenser (TECAN D300E) to make a 9.9 μL of reaction mixture. After 20 minutes preincubation at room temperature, 0.1 μL MgCl2 (10 mM final) was added to initiate the reaction. Following a 45 minute incubation at 37° C., the reaction was stopped by addition of 2 μL of quenching buffer consisting of Lance detection buffer (Perkinelmer CR97-100C), LANCE Ultra Europium-anti-P-4E-BP1 (Perkinelmer, TRF0216-D), EDTA, and incubated at room temperature for additional 60 minutes in dark. The reaction signal was measured by Envision multimode plate reader (PerkinElmer, 2102-0010). IC50 values were determined by fitting the data to the standard 4 parameters with Hill Slope using GraphPad Prism software.

The structures appear in SMILES notation.

T1 sequence (P11802 whole entry): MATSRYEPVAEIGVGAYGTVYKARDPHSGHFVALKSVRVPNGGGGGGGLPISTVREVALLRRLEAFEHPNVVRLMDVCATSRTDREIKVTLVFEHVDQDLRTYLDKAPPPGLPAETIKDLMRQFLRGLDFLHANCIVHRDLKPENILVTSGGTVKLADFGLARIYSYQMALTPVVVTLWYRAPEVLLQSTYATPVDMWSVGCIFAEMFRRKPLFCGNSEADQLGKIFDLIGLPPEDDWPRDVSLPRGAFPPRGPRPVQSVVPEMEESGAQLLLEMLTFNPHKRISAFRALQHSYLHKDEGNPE
T1 sequence (P24385 whole entry partner): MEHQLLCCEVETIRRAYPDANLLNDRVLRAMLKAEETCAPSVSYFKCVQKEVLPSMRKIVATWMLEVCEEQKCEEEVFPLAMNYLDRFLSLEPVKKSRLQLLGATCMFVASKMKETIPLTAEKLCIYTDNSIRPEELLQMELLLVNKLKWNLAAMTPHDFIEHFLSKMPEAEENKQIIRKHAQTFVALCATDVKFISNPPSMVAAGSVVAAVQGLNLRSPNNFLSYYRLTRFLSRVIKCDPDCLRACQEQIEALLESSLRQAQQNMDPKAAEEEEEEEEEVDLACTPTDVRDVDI

Broadly, the IC50 is the midpoint of a concentration-inhibition curve. With `CS(=O)(=O)N1CCC(Nc2ncc(C(F)(F)F)c(-c3cc4c(s3)C3(CCF)CCCN3C4=O)n2)CC1` (stereo not shown) [Example 19, 8a-(2-Fluoroethyl)-2-(2-((1-(methylsulfonyl)piperidin-4-yl)amino)-5-(trifluoromethyl)pyrimidin-4-yl)-6,7,8,8a-tetrahydro-4H-thieno[2,3-a]pyrrolizin-4-one], the IC50 on CDK2/Cyclin E2, in the experiment with pRB in OVCAR3 cells and on CDK4/Cyclin D1 was ≤ 100 nM in each case.
Consider `CCC12CC(F)(F)CN1C(=O)c1cc(-c3nc(NC4CCN(S(=O)(=O)c5cnn(C)c5)CC4)ncc3C(F)(F)F)sc12` (stereo not shown) [Example 35, 8a-Ethyl-7,7-difluoro-2-(2-((1-((1-methyl-1H-pyrazol-4-yl)sulfonyl)piperidin-4-yl)amino)-5-(trifluoromethyl)pyrimidin-4-yl)-6,7,8,8a-tetrahydro-4H-thieno[2,3-a]pyrrolizin-4-one], for which the concentration for half-maximal inhibition (IC50) on CDK2/Cyclin E2, with pRB in OVCAR3 cells and at CDK4/Cyclin D1 was ≤ 100 nM in each case.
For `CC(C)C12CC(O)CN1C(=O)c1cc(-c3nc(NC4CCN(S(C)(=O)=O)CC4)ncc3C(F)(F)F)sc12` (stereo not shown) [Example 29, 7-Hydroxy-8a-isopropyl-2-(2-((1-(methylsulfonyl)piperidin-4-yl)amino)-5-(trifluoromethyl)pyrimidin-4-yl)-6,7,8,8a-tetrahydro-4H-thieno[2,3-a]pyrrolizin-4-one], the half-inhibitory concentration (IC50) at CDK2/Cyclin E2, in the experiment on pRB in OVCAR3 cells and on CDK4/Cyclin D1 was ≤ 100 nM in each case.
Consider `CS(=O)(=O)N1CCC(Nc2ncc(C(F)(F)F)c(-c3cc4c(s3)C3(C5CC(F)C5)CCCN3C4=O)n2)CC1` (stereo not shown) [Example 26, 8a-(3-Fluorocyclobutyl)-2-(2-((1-(methylsulfonyl)piperidin-4-yl)amino)-5-(trifluoromethyl)pyrimidin-4-yl)-6,7,8,8a-tetrahydro-4H-thieno[2,3-a]pyrrolizin-4-one], for which the half-maximal inhibitory concentration (IC50) is ≤ 100 nM on CDK2/Cyclin E2, 100 to 500 nM in the experiment on pRB in OVCAR3 cells and ≤ 100 nM on CDK4/Cyclin D1.
With `CS(=O)(=O)N1CCC(Nc2ncc(C(F)(F)F)c(-c3cc4c(s3)C3(CCO)CCCCN3C4=O)n2)CC1` (stereo not shown) [Example 5, 9a-(2-Hydroxyethyl)-2-(2-((1-(methylsulfonyl)piperidin-4-yl)amino)-5-(trifluoromethyl)pyrimidin-4-yl)-7,8,9,9a-tetrahydrothieno[2,3-a]indolizin-4(6H)-one], the IC50 at CDK2/Cyclin E2 and on CDK4/Cyclin D1 was ≤ 100 nM each time.
Consider `CC(C)C12CCCCN1C(=O)c1cc(-c3nc(NC4CCN(S(C)(=O)=O)CC4)ncc3C(F)(F)F)sc12` (stereo not shown) [Example 1, 9a-isopropyl-2-(2-((1-(methylsulfonyl)piperidin-4-yl)amino)-5-(trifluoromethyl)pyrimidin-4-yl)-7,8,9,9a-tetrahydrothieno[2,3-a]indolizin-4(6H)-one], for which the IC50 on CDK2/Cyclin E2 was ≤ 100 nM; with pRB in OVCAR3 cells, 100 to 500 nM; at CDK4/Cyclin D1, ≤ 100 nM.
For the molecule `CC12CCCN1C(=O)c1cc(-c3nc(NC4CCN(S(C)(=O)=O)CC4)ncc3C(F)(F)F)sc12` (stereo not shown) [Example 20, 8a-Methyl-2-(2-((1-(methylsulfonyl)piperidin-4-yl)amino)-5-(trifluoromethyl)pyrimidin-4-yl)-6,7,8,8a-tetrahydro-4H-thieno[2,3-a]pyrrolizin-4-one], the concentration for half-maximal inhibition (IC50) at CDK2/Cyclin E2, in the experiment with pRB in OVCAR3 cells and on CDK4/Cyclin D1 was ≤ 100 nM each time.
As to `CS(=O)(=O)N1CCC(Nc2ncc(C(F)(F)F)c(-c3cc4c(s3)C3(C5CC5)CCCN3C4=O)n2)CC1` (stereo not shown) [Example 22, 8a-Cyclopropyl-2-(2-((1-(methylsulfonyl)piperidin-4-yl)amino)-5-(trifluoromethyl)pyrimidin-4-yl)-6,7,8,8a-tetrahydro-4H-thieno[2,3-a]pyrrolizin-4-one], the 50% inhibitory concentration (IC50) on CDK2/Cyclin E2, in the experiment with pRB in OVCAR3 cells and at CDK4/Cyclin D1 was ≤ 100 nM in each case.
Turning to `[2H]C([2H])([2H])NC1CN2C(=O)c3cc(-c4nc(NC5CCN(S(C)(=O)=O)CC5)ncc4C(F)(F)F)sc3C2(CC)C1` (stereo not shown) [Example 42, 8a-Ethyl-7-((methyl-d3)amino)-2-(2-((1-(methylsulfonyl)piperidin-4-yl)amino)-5-(trifluoromethyl)pyrimidin-4-yl)-6,7,8,8a-tetrahydro-4H-thieno[2,3-a]pyrrolizin-4-one], the half-maximal inhibitory concentration (IC50) on CDK2/Cyclin E2, in the experiment with pRB in OVCAR3 cells and on CDK4/Cyclin D1 was ≤ 100 nM in each case.
As to `CCC12CC(N)CN1C(=O)c1cc(-c3nc(N[C@H]4CCN(S(=O)(=O)c5cnn(C)c5)C[C@H]4C)ncc3C(F)(F)F)sc12` (stereo partly drawn) [Example 46, 7-Amino-8a-ethyl-2-(2-(((3R,4S)-3-methyl-1-((1-methyl-1H-pyrazol-4-yl)sulfonyl)piperidin-4-yl)amino)-5-(trifluoromethyl)pyrimidin-4-yl)-6,7,8,8a-tetrahydro-4H-thieno[2,3-a]pyrrolizin-4-one], the IC50 on CDK2/Cyclin E2, in the experiment with pRB in OVCAR3 cells and at CDK4/Cyclin D1 was ≤ 100 nM in each case.
For `CS(=O)(=O)N1CCC(Nc2ncc(C(F)(F)F)c(-c3cc4c(s3)C3(CCCO)CCCCN3C4=O)n2)CC1` (stereo not shown) [Example 4, 9a-(3-Hydroxypropyl)-2-(2-((1-(methylsulfonyl)piperidin-4-yl)amino)-5-(trifluoromethyl)pyrimidin-4-yl)-7,8,9,9a-tetrahydrothieno[2,3-a]indolizin-4(6H)-one], the half-inhibitory concentration (IC50) on CDK2/Cyclin E2 and at CDK4/Cyclin D1 was ≤ 100 nM throughout.
For the molecule `CCC12CCCN1C(=O)c1cc(-c3ccnc(NC4CCN(S(C)(=O)=O)CC4)n3)sc12` (stereo not shown) [Example 28, 8a-Ethyl-2-(2-((1-(methylsulfonyl)piperidin-4-yl)amino)pyrimidin-4-yl)-6,7,8,8a-tetrahydro-4H-thieno[2,3-a]pyrrolizin-4-one], the concentration for half-maximal inhibition (IC50) on CDK2/Cyclin E2 and at CDK4/Cyclin D1 was 100 to 500 nM in each case.
On to `CC(C)C12CCCCN1C(=O)c1cc(-c3nc(NC4CCN(S(C)(=O)=O)CC4)ncc3F)sc12` (stereo not shown) [Example 9, 2-(5-Fluoro-2-((1-(methylsulfonyl)piperidin-4-yl)amino)pyrimidin-4-yl)-9a-isopropyl-7,8,9,9a-tetrahydrothieno[2,3-a]indolizin-4(6H)-one], for which, at CDK2/Cyclin E2, the IC50 is ≤ 100 nM.

Values taken from patent US11939340B2, “CDK inhibitors and their use as pharmaceuticals” (Prelude Therapeutics Incorporated, priority 2022, dated 2024).
